Test results from publication PMC7758046, “Novel piperazine–chalcone hybrids and related pyrazoline analogues targeting VEGFR-2 kinase; design, synthesis, molecular docking studies, and anticancer evaluation” (Journal of Enzyme Inhibition and Medicinal Chemistry, 2020).

Assays:
Assay in all cases: NCI-60 single-dose anticancer screen
Type in all cases: cell-based, human
[1] = test system: SNB-75 (CNS cancer); settings: 10 µM single dose
Method: (§1) Six compounds were selected by the NCI, according to NCI’s DTP selection guidelines, for evaluation of their anticancer activity at a single-dose of 10 µM against 60 human tumours cell lines.
(§2) In vitro cytotoxicity was performed in NCI according to reported method.

[2] = test system: LOX IMVI (Melanoma); settings: 10 µM single dose
Method: as §1, §2

[3] = test system: PC-3 (Prostate cancer); settings: 10 µM single dose
Method: as §1, §2

[4] = test system: SK-MEL-5 (Melanoma); settings: 10 µM single dose
Method: as §1, §2

[5] = test system: SK-MEL-2 (Melanoma); settings: 10 µM single dose
Method: as §1, §2

[6] = test system: SF-539 (CNS cancer); settings: 10 µM single dose
Method: as §1, §2

[7] = test system: RPMI-8226 (Leukaemia); settings: 10 µM single dose
Method: as §1, §2

[8] = test system: SNB-19 (CNS cancer); settings: 10 µM single dose
Method: as §1, §2

[9] = test system: CAKI-1 (Renal cancer); settings: 10 µM single dose
Method: as §1, §2

[10] = test system: EKVX (Non-small cell lung cancer); settings: 10 µM single dose
Method: as §1, §2

[11] = test system: SK-OV-3 (Ovarian cancer); settings: 10 µM single dose
Method: as §1, §2

[12] = test system: IGROV1 (Ovarian cancer); settings: 10 µM single dose
Method: as §1, §2

[13] = test system: OVCAR-3 (Ovarian cancer); settings: 10 µM single dose
Method: as §1, §2

[14] = test system: OVCAR-5 (Ovarian cancer); settings: 10 µM single dose
Method: as §1, §2

[15] = test system: HOP-62 (Non-small cell lung cancer); settings: 10 µM single dose
Method: as §1, §2

[16] = test system: MDA-MB-435 (Melanoma); settings: 10 µM single dose
Method: as §1, §2

[17] = test system: 786-0 (Renal cancer); settings: 10 µM single dose
Method: as §1, §2

[18] = test system: MCF7 (Breast cancer); settings: 10 µM single dose; for inhibition at 10 µM: Homo sapiens, read-out: cell growth inhibition
Method: as §1, §2

[19] = test system: HL-60(TB) (Leukaemia); settings: 10 µM single dose; for inhibition at 10 µM: Homo sapiens, read-out: cell growth inhibition
Method: as §1, §2

[20] = test system: COLO 205 (Colon cancer); settings: 10 µM single dose
Method: as §1, §2

[21] = test system: SK-MEL-28 (Melanoma); settings: 10 µM single dose
Method: as §1, §2

[22] = test system: ACHN (Renal cancer); settings: 10 µM single dose
Method: as §1, §2

[23] = test system: MDA-MB-231/ATCC (Breast cancer); settings: 10 µM single dose
Method: as §1, §2

[24] = test system: SW-620 (Colon cancer); settings: 10 µM single dose
Method: as §1, §2

[25] = test system: OVCAR-8 (Ovarian cancer); settings: 10 µM single dose
Method: as §1, §2

[26] = test system: UO-31 (Renal cancer); settings: 10 µM single dose
Method: as §1, §2

[27] = test system: NCI-H322M (Non-small cell lung cancer); settings: 10 µM single dose
Method: as §1, §2

[28] = test system: SN12C (Renal cancer); settings: 10 µM single dose
Method: as §1, §2

[29] = test system: HT29 (Colon cancer); settings: for cell growth promotion: 10 µM single dose; for inhibition at 10 µM: Homo sapiens, HT-29, 10 µM single dose, read-out: cell growth inhibition
Method: as §1, §2

[30] = test system: HCC-2998 (Colon cancer); settings: 10 µM single dose
Method: as §1, §2

[31] = test system: T-47D (Breast cancer); settings: 10 µM single dose
Method: as §1, §2

[32] = test system: UACC-257 (Melanoma); settings: 10 µM single dose
Method: as §1, §2

[33] = test system: MALME-3M (Melanoma); settings: 10 µM single dose
Method: as §1, §2

[34] = test system: NCI-H226 (Non-small cell lung cancer); settings: 10 µM single dose
Method: as §1, §2

[35] = test system: TK-10 (Renal cancer); settings: 10 µM single dose
Method: as §1, §2

[36] = test system: SF-268 (CNS cancer); settings: 10 µM single dose
Method: as §1, §2

[37] = test system: MDA-MB-468 (Breast cancer); settings: 10 µM single dose
Method: as §1, §2

[38] = test system: RXF 393 (Renal cancer); settings: 10 µM single dose
Method: as §1, §2

[39] = test system: A549/ATCC (Non-small cell lung cancer); settings: 10 µM single dose
Method: as §1, §2

[40] = test system: HOP-92 (Non-small cell lung cancer); settings: 10 µM single dose; for inhibition at 10 µM: Homo sapiens, read-out: cell growth inhibition
Method: as §1, §2

[41] = test system: NCI-H23 (Non-small cell lung cancer); settings: 10 µM single dose
Method: as §1, §2

[42] = test system: SF-295 (CNS cancer); settings: 10 µM single dose
Method: as §1, §2

[43] = test system: CCRF-CEM (Leukaemia); settings: 10 µM single dose; for inhibition at 10 µM: Homo sapiens, read-out: cell growth inhibition
Method: as §1, §2

[44] = test system: BT-549 (Breast cancer); settings: 10 µM single dose
Method: as §1, §2

[45] = test system: SR (Leukaemia); settings: 10 µM single dose; for inhibition at 10 µM: Homo sapiens, read-out: cell growth inhibition
Method: as §1, §2

[46] = test system: OVCAR-4 (Ovarian cancer); settings: 10 µM single dose
Method: as §1, §2

[47] = test system: DU-145 (Prostate cancer); settings: 10 µM single dose
Method: as §1, §2

Work on `O=C(C=Cc1cccc(F)c1)c1ccc(N2CCNCC2)cc1` [Vd, 3-(3-Fluorophenyl)-1-(4-(piperazin-1-yl)phenyl)prop-2-en-1-one] yielded a cell growth promotion [1] of 85.44%, a cell growth promotion [2] of 71.13% and a cell growth promotion [3] of 66.01%. For the same molecule, the cell growth promotion [4] was 76.85%, the cell growth promotion [5] was 96.08% and the cell growth promotion [6] was 94.49%. The cell growth promotion [7] was 76.47%, the cell growth promotion [8] was 71.95% and the cell growth promotion [9] was 68.63%. For the same molecule, the cell growth promotion [10] was 95.54%, the cell growth promotion [11] was 79.98% and the cell growth promotion [12] was 67.97%. For the same molecule, the cell growth promotion [13] was 93.74%, the cell growth promotion [14] was 94.72% and the cell growth promotion [15] was 80.17%. It also gave a cell growth promotion [16] of 94.27%, a cell growth promotion [17] of 85.24% and a cell growth promotion [18] of 51.72%. It also gave an inhibition at 10 µM [18] of 48.3%, a cell growth promotion [19] of 60.38% and an inhibition at 10 µM [19] of 39.2%. It also gave a cell growth promotion [20] of 96.91%, a cell growth promotion [21] of 109.03% and a cell growth promotion [22] of 84.70%. It also gave a cell growth promotion [23] of 73.60%, a cell growth promotion [24] of 61.08% and a cell growth promotion [25] of 67.16%. It also gave a cell growth promotion [26] of 76.58%, a cell growth promotion [27] of 75.26% and a cell growth promotion [28] of 68.16%. It also gave a cell growth promotion [29] of 30.44%, an inhibition at 10 µM [29] of 69.6% and a cell growth promotion [30] of 94.99%. The cell growth promotion [31] was 87.54%, the cell growth promotion [32] was 75.92% and the cell growth promotion [33] was 94.15%. The cell growth promotion [34] was 87.11%, the cell growth promotion [35] was 114.19% and the cell growth promotion [36] was 85.41%. For the same molecule, the cell growth promotion [37] was 94.85%, the cell growth promotion [38] was 75.94% and the cell growth promotion [39] was 76.84%. For the same molecule, the cell growth promotion [40] was 58.41%, the inhibition at 10 µM [40] was 41.6% and the cell growth promotion [41] was 77.30%. For the same molecule, the cell growth promotion [42] was 101.78%, the cell growth promotion [43] was 58.18% and the inhibition at 10 µM [43] was 41.8%. It also gave a cell growth promotion [44] of 73.16%, a cell growth promotion [45] of 55.72% and an inhibition at 10 µM [45] of 44.3%. It also gave a cell growth promotion [46] of 80.53% and a cell growth promotion [47] of 77.70%.

Work on `COc1cc(C=CC(=O)c2ccc(N3CCNCC3)cc2)ccc1F` [Ve, 3-(4-Fluoro-3-methoxyphenyl)-1-(4-(piperazin-1-yl)phenyl) prop-2-en-1-one] yielded a cell growth promotion [1] of 89.05%, a cell growth promotion [2] of 49.01% and a cell growth promotion [3] of 51.40%. It also gave a cell growth promotion [4] of 79.33%, a cell growth promotion [5] of 85.44% and a cell growth promotion [6] of 95.87%. It also gave a cell growth promotion [7] of 49.59%, a cell growth promotion [8] of 59.87% and a cell growth promotion [9] of 79.37%. The cell growth promotion [10] was 97.12%, the cell growth promotion [11] was 87.98% and the cell growth promotion [12] was 59.94%. The cell growth promotion [13] was 70.18%, the cell growth promotion [14] was 121.73% and the cell growth promotion [15] was 101.42%. It also gave a cell growth promotion [16] of 80.14%, a cell growth promotion [17] of 87.22% and a cell growth promotion [18] of 34.68%. The inhibition at 10 µM [18] was 65.3%, the cell growth promotion [19] was 28.91% and the inhibition at 10 µM [19] was 71.1%. It also gave a cell growth promotion [20] of 83.00%, a cell growth promotion [21] of 106.02% and a cell growth promotion [22] of 68.11%. For the same molecule, the cell growth promotion [23] was 94.50%, the cell growth promotion [24] was 50.69% and the cell growth promotion [25] was 57.23%. For the same molecule, the cell growth promotion [26] was 58.35%, the cell growth promotion [27] was 73.01% and the cell growth promotion [28] was 57.67%. It also gave a cell growth promotion [29] of 49.97%, a cell growth promotion [30] of 100.21% and a cell growth promotion [31] of 74.40%. For the same molecule, the cell growth promotion [32] was 76.08%, the cell growth promotion [33] was 112.40% and the cell growth promotion [34] was 86.54%. For the same molecule, the cell growth promotion [35] was 101.24%, the cell growth promotion [36] was 94.03% and the cell growth promotion [37] was 46.48%. The cell growth promotion [38] was 101.92%, the cell growth promotion [39] was 67.25% and the cell growth promotion [40] was 55.00%. The inhibition at 10 µM [40] was 45%, the cell growth promotion [41] was 92.63% and the cell growth promotion [42] was 95.92%. It also gave a cell growth promotion [43] of 22.15%, an inhibition at 10 µM [43] of 77.8% and a cell growth promotion [44] of 66.42%. It also gave a cell growth promotion [45] of 46.22%, an inhibition at 10 µM [45] of 53.8% and a cell growth promotion [46] of 68.87%. For the same molecule, the cell growth promotion [47] was 105.61%.

`O=C(C=Cc1ccncc1F)c1ccc(N2CCNCC2)cc1` [Vf, 3-(3-Fluoropyridin-4-yl)-1-(4-(piperazin-1-yl)phenyl)prop-2-en-1-one] gave a cell growth promotion [1] of 89.08%, a cell growth promotion [2] of 103.22% and a cell growth promotion [3] of 73.56%. It also gave a cell growth promotion [4] of 101.11%, a cell growth promotion [5] of 91.63% and a cell growth promotion [6] of 101.29%. For the same molecule, the cell growth promotion [7] was 97.33%, the cell growth promotion [8] was 96.07% and the cell growth promotion [9] was 86.18%. The cell growth promotion [10] was 99.11%, the cell growth promotion [11] was 96.68% and the cell growth promotion [12] was 97.17%. For the same molecule, the cell growth promotion [13] was 106.22%, the cell growth promotion [14] was 111.84% and the cell growth promotion [15] was 102.01%. The cell growth promotion [16] was 102.37%, the cell growth promotion [17] was 103.38% and the cell growth promotion [18] was 99.38%. The inhibition at 10 µM [18] was 0.62%, the cell growth promotion [19] was 79.28% and the inhibition at 10 µM [19] was 20.7%. It also gave a cell growth promotion [20] of 111.89%, a cell growth promotion [21] of 115.56% and a cell growth promotion [22] of 113.06%. For the same molecule, the cell growth promotion [23] was 98.76%, the cell growth promotion [24] was 105.59% and the cell growth promotion [25] was 95.35%. For the same molecule, the cell growth promotion [26] was 89.78%, the cell growth promotion [27] was 96.26% and the cell growth promotion [28] was 99.00%. It also gave a cell growth promotion [29] of 86.42%, an inhibition at 10 µM [29] of 13.8% and a cell growth promotion [30] of 100.88%. The cell growth promotion [31] was 118.12%, the cell growth promotion [32] was 70.86% and the cell growth promotion [33] was 99.98%. For the same molecule, the cell growth promotion [34] was 99.71%, the cell growth promotion [35] was 95.83% and the cell growth promotion [36] was 100.92%. For the same molecule, the cell growth promotion [37] was 100.32%, the cell growth promotion [38] was 97.78% and the cell growth promotion [39] was 78.75%. The cell growth promotion [40] was 82.34%, the inhibition at 10 µM [40] was 17.7% and the cell growth promotion [41] was 102.52%. The cell growth promotion [42] was 101.95%, the cell growth promotion [43] was 78.16% and the inhibition at 10 µM [43] was 21.8%. For the same molecule, the cell growth promotion [44] was 90.81%, the cell growth promotion [45] was 92.99% and the inhibition at 10 µM [45] was 7.01%. It also gave a cell growth promotion [46] of 110.55% and a cell growth promotion [47] of 108.14%.
